Measurements taken from US20220088016A1, “CANCER TREATMENT USING MULTI-TARGETED KINASE INHIBITOR IN COMBINATION OF PROTEIN KINASE BIOMARKERS” (ZHEJIANG CROWNMAB BIOTECH CO. LTD., priority 2019, published 2022).

Legend:
Test in all cases: Kinase profiling
Type in all cases: binding
Settings in all cases: read-out: % Ctrl @ 1000 nM
[1] = target: ABL1 (T315I)-nonphosphorylated (Homo sapiens, UniProt P00519, T315I)
ALK (C1156Y) = ALK (C1156Y) (Homo sapiens, UniProt Q9UM73, C1156Y)
ASK1 = ASK1 (Homo sapiens, UniProt Q99683)
BIKE = BIKE (Homo sapiens, UniProt Q9NSY1)
BRK = BRK (Homo sapiens, UniProt Q13882)
CDK11 = CDK11 (Homo sapiens, UniProt Q9BWU1)
CDK3 = CDK3 (Homo sapiens, UniProt Q00526)
CLK3 = CLK3 (Homo sapiens, UniProt P49761)
CSNK1G1 = CSNK1G1 (Homo sapiens, UniProt Q9HCP0)
CTK = CTK (Homo sapiens, UniProt P42679)
DAPK1 = DAPK1 (Homo sapiens, UniProt P53355)
DCAMKL3 = DCAMKL3 (Homo sapiens, UniProt Q9C098)
EGFR (L858R, T790M) = EGFR (L858R, T790M) (Homo sapiens, UniProt P00533, L858R/T790M)
EIF2AK1 = EIF2AK1 (Homo sapiens, UniProt Q9BQI3)
EPHA1 = EPHA1 (Homo sapiens, UniProt P21709)
EPHA3 = EPHA3 (Homo sapiens, UniProt P29320)
EPHA3, sequence (P29320 21-983): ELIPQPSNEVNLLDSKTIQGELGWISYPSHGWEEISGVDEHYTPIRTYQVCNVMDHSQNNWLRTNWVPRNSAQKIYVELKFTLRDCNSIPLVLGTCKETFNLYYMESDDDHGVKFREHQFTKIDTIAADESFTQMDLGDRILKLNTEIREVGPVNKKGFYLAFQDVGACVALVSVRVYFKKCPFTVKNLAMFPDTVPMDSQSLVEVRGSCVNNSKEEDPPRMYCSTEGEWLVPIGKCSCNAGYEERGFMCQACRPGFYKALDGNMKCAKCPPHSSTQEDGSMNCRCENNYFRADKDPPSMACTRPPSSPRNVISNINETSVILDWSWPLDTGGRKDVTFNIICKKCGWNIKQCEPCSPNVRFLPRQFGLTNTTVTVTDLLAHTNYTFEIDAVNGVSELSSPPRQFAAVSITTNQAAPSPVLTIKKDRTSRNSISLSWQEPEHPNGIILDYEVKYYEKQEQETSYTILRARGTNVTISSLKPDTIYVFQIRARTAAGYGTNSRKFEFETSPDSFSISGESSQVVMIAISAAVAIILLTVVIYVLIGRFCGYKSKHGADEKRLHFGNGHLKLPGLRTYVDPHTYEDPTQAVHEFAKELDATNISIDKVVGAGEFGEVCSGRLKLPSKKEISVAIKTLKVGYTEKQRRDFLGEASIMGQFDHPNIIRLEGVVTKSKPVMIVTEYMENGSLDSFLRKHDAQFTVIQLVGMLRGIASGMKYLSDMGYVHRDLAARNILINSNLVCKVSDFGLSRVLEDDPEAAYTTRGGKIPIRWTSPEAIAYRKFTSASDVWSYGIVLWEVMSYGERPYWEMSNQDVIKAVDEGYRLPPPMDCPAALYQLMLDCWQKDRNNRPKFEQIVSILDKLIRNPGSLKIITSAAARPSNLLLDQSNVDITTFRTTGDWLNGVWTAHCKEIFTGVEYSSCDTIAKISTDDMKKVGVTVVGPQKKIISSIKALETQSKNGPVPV

FER = FER (Homo sapiens, UniProt P16591)
FGFR3 = FGFR3 (Homo sapiens, UniProt P22607)
FLT4 = FLT4 (Homo sapiens, UniProt P35916)
HASPIN = HASPIN (Homo sapiens, UniProt Q8TF76)
HUNK = HUNK (Homo sapiens, UniProt P57058)
[2] = target: JAK1 (JH2domain-pseudokinase) (Homo sapiens, UniProt P23458)
JAK1 (JH2domain-pseudokinase), sequence (P23458 583-855 limits assumed): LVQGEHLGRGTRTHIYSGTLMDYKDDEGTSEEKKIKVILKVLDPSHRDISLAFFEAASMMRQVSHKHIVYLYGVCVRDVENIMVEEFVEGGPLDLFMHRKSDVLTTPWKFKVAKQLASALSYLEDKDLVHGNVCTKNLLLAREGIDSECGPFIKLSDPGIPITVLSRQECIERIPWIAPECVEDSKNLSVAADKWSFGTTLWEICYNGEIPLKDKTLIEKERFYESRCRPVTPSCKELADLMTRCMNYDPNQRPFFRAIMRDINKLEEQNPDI

KIT (A829P) = KIT (A829P) (Homo sapiens, UniProt P10721, A829P)
KIT (D816H) = KIT (D816H) (Homo sapiens, UniProt P10721, D816H)
KIT (L576P) = KIT (L576P) (Homo sapiens, UniProt P10721, L576P)
KIT (L576P), sequence (P10721 26-976 L576P): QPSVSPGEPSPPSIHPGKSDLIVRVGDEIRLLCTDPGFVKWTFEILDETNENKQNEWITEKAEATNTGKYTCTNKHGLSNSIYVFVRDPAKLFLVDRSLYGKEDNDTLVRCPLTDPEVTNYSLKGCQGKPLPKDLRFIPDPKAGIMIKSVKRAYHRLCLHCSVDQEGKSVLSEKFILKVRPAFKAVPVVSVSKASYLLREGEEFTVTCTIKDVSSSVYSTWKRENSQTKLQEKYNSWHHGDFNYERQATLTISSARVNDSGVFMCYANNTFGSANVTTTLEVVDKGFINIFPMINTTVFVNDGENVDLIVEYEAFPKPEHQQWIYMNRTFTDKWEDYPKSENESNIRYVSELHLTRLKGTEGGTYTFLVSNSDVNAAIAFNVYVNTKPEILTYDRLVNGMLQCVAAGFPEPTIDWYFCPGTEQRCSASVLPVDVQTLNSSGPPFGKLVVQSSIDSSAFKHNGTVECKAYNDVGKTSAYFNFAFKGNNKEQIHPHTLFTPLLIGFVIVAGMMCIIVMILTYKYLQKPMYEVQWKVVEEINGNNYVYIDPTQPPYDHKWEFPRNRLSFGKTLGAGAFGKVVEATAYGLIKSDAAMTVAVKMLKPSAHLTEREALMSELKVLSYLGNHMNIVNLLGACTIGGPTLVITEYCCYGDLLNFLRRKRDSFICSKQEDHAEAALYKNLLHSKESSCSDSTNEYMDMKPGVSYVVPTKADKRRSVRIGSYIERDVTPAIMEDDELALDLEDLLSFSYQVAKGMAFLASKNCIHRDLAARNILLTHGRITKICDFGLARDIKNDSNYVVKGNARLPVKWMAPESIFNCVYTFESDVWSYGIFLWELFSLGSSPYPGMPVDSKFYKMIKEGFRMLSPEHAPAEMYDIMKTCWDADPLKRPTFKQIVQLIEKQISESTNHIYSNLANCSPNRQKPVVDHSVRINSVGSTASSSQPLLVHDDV

LIMK1 = LIMK1 (Homo sapiens, UniProt P53667)
MAP4K3 = MAP4K3 (Homo sapiens, UniProt Q8IVH8)
MAP4K3, sequence (Q8IVH8 whole entry): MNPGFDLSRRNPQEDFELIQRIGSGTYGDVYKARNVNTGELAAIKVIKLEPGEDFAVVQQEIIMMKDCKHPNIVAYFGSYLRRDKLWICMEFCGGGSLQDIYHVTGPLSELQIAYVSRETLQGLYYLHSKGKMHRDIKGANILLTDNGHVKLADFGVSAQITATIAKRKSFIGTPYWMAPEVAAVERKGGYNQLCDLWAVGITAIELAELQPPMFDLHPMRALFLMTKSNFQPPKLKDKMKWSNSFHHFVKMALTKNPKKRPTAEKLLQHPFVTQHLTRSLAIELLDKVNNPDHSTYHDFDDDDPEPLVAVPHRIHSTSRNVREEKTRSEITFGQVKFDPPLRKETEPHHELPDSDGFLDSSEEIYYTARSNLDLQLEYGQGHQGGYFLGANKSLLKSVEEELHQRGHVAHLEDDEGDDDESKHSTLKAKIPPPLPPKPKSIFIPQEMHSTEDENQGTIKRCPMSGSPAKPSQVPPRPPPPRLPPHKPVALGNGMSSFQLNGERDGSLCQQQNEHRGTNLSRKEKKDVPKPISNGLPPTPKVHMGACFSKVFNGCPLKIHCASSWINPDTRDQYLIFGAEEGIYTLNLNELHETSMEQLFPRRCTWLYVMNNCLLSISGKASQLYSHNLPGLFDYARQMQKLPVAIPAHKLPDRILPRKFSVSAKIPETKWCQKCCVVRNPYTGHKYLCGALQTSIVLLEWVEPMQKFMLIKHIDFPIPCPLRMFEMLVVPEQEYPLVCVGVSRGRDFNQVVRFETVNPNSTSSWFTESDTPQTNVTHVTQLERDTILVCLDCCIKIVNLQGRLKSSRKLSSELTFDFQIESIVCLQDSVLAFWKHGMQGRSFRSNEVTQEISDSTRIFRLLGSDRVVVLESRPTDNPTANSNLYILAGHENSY

MRCKB = target: T1, MRCKB (Homo sapiens, UniProt Q9Y5S2)
T1 construct: T7 phage fusion (stated for most kinases of the panel only); made in house; host or cells: T7 phage in E. coli (BL21-derived) or HEK-293 cells

PCTK2 = PCTK2 (Homo sapiens, UniProt Q00537)
PDGFRB = PDGFRB (Homo sapiens, UniProt P09619)
PFTK1 = PFTK1 (Homo sapiens, UniProt O94921)
PFTK1, sequence (O94921 whole entry): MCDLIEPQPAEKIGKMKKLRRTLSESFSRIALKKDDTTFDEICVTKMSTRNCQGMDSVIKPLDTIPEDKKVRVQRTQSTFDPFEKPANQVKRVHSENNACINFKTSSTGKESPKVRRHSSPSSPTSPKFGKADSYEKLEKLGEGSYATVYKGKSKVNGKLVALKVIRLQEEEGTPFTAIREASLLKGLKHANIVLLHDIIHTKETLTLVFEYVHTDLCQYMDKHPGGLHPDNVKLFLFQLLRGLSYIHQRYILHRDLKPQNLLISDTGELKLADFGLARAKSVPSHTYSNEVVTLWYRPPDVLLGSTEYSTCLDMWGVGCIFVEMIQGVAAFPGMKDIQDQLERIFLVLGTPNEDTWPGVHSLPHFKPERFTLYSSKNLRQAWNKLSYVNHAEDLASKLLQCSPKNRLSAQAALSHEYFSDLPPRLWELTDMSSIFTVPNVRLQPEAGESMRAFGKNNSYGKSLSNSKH

PIK3C2B = PIK3C2B (Homo sapiens, UniProt O00750)
PIK3CB = PIK3CB (Homo sapiens, UniProt P42338)
PIK3CB, sequence (P42338 whole entry): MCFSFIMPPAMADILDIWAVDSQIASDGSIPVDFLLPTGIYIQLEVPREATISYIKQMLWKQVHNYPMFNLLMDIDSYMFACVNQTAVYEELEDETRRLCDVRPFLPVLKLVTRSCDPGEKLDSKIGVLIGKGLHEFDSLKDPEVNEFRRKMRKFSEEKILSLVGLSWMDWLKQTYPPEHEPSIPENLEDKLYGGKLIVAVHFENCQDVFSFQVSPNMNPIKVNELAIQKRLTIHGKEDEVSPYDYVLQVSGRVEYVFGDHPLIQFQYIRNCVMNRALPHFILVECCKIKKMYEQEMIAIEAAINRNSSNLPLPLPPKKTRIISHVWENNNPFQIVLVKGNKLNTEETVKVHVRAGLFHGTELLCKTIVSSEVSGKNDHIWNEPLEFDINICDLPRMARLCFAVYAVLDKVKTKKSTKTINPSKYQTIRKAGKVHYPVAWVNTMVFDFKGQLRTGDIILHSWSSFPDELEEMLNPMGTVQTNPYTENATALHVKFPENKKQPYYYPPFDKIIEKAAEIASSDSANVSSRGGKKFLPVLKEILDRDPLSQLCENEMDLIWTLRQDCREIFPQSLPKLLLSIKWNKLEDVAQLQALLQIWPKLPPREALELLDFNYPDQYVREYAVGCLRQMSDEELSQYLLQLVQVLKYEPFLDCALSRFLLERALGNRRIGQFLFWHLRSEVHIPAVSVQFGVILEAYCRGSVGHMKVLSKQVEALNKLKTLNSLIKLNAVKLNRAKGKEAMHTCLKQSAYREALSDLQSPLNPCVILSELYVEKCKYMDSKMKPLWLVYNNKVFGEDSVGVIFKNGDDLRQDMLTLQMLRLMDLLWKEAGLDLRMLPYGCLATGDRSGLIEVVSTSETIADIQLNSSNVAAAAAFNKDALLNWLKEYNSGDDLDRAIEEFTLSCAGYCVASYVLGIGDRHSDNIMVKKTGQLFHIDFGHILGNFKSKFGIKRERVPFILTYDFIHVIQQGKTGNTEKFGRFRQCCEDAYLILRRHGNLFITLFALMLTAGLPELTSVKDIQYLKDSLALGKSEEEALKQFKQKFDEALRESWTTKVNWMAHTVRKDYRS

RET (V804M) = RET (V804M) (Homo sapiens, UniProt P07949, V804M)
[3] = target: RPS6KA4 (Kin.Dom.1-N-terminal) (Homo sapiens, UniProt O75676)
S6K1 = S6K1 (Homo sapiens, UniProt P23443)
SBK1 = SBK1 (Homo sapiens, UniProt Q52WX2)
SBK1, sequence (Q52WX2 whole entry): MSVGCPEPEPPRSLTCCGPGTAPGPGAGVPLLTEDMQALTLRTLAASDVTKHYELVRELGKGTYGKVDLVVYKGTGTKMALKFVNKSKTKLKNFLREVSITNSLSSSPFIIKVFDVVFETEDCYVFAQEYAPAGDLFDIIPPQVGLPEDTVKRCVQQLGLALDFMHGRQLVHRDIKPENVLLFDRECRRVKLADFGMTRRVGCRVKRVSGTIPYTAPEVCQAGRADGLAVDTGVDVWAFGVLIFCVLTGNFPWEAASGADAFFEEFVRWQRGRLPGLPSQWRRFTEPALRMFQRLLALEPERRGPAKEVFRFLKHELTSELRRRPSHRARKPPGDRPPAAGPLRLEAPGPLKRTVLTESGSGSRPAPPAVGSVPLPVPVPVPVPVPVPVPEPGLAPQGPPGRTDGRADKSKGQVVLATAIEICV

TRKB = TRKB (Homo sapiens, UniProt Q16620)
TRKC = TRKC (Homo sapiens, UniProt Q16288)

Cc1cc(Oc2cc(NC(=O)C3CC3)ncn2)ccc1NC(=O)Nc1ccc(Cl)c(C(F)(F)F)c1 [CBT-102]
remaining activity at 1 µM [1]: 2.3% | remaining activity at 1 µM (ALK (C1156Y)): 97% | remaining activity at 1 µM (ASK1): 91% | remaining activity at 1 µM (BIKE): 61% | remaining activity at 1 µM (BRK): 89% | remaining activity at 1 µM (CDK11): 0% | remaining activity at 1 µM (CDK3): 90% | remaining activity at 1 µM (CLK3): 100% | remaining activity at 1 µM (CSNK1G1): 100% | remaining activity at 1 µM (CTK): 74% | remaining activity at 1 µM (DAPK1): 98% | remaining activity at 1 µM (DCAMKL3): 100% | remaining activity at 1 µM (EGFR (L858R, T790M)): 86% | remaining activity at 1 µM (EIF2AK1): 99% | remaining activity at 1 µM (EPHA1): 45% | remaining activity at 1 µM (EPHA3): 33% | remaining activity at 1 µM (FER): 73% | remaining activity at 1 µM (FGFR3): 87% | remaining activity at 1 µM (FLT4): 0.05% | remaining activity at 1 µM (HASPIN): 81% | remaining activity at 1 µM (HUNK): 68% | remaining activity at 1 µM [2]: 100% | remaining activity at 1 µM (KIT (A829P)): 16% | remaining activity at 1 µM (KIT (D816H)): 37% | remaining activity at 1 µM (KIT (L576P)): 0% | remaining activity at 1 µM (LIMK1): 74% | remaining activity at 1 µM (MAP4K3): 19% | remaining activity at 1 µM (MRCKB): 100% | remaining activity at 1 µM (PCTK2): 44% | remaining activity at 1 µM (PDGFRB): 0% | remaining activity at 1 µM (PFTK1): 34% | remaining activity at 1 µM (PIK3C2B): 100% | remaining activity at 1 µM (PIK3CB): 100% | remaining activity at 1 µM (RET (V804M)): 3.3% | remaining activity at 1 µM [3]: 100% | remaining activity at 1 µM (S6K1): 99% | remaining activity at 1 µM (SBK1): 92% | remaining activity at 1 µM (TRKB): 71% | remaining activity at 1 µM (TRKC): 37%
